From patent US20250263436A1, “BROAD-SPECTRUM ANTIVIRAL DRUG FOR ENTEROVIRUS, AND APPLICATION” (WUHAN INSTITUTE OF VIROLOGY, CHINESE ACADEMY OF SCIENCES, priority 2020, published 2025)
pIC50: −log10 of the molar value. Values joined by “and” are separate entries in the source; they are usually repeats but may differ in a detail not shown here. Equal values may be shown once.

Key:
EV71 [1] = test: Inhibition of EV71 in RD cells (viral RNA, qRT-PCR); assay type: cell-based, enterovirus 71 (EV71); details: anti-EV71 in RD cells
Description: (§1) (1) Different cells were plated in a 24-well plate.
(§2) (2) When the cells grew to a confluence of 70%-80%, the DMEM medium containing 10% serum was replaced with a DMEM medium containing 2% serum (the DMEM medium containing 2% serum was added in each well at an amount of 0.5 mL), and 5 μL of EV71 virus of 1×10^6 PFU/mL was added to each well.
(§3) (3) After 1 h, different polypeptides (RQ or control TAT) with final concentrations of 0.3125 μM, 0.625 μM, 1.25 μM, 2.5 μM, and 5 μM were added respectively. The group without polypeptide added was used as a control.
(§4) (4) The samples were collected 24 h after the infection of EV71 virus, and RNA was extracted with the total RNA extraction kit.
(§5) (5) The supernatant was discarded, then 350 μL of TRK lysate was added to each well, and the plate was put on a shaker for 5 min.
(§6) (6) 350 μL of 70% ethanol (DEPC) was added to each well, and then the plate was put on a shaker for 5 min.
(§7) (7) The solution in each well was transferred to a RNA extraction column for 1 min of centrifugation at 12000 g.
(§8) (8) The solution obtained in the recovery tube was reloaded on the column again for 1 min of centrifugation at 12000 g.
(§9) (9) RNA washing buffer 1 was added in the column for 30 s of centrifugation at 12000 g.
(§10) (10) RNA washing buffer 2 was added in the column for 1 min of centrifugation at 12000 g.
(§11) (11) Step (10) was repeated.
(§12) (12) The column alone was centrifuged at 12000 g for 2 min to completely remove the residual RNA washing buffer.
(§13) (13) 50 μL of DEPC water was added to the column for 2 min of centrifugation at 12000 g.
(§14) (14) 2 μL of RNA sample was subjected to a fluorescence quantitative experiment using the one step qRT-PCR kit.
(3) After 1 h, different polypeptides (RQ or control TAT) with final concentrations of 0.3125 μM, 0.625 μM, 1.25 μM, 2.5 μM and 5 μM were added respectively. The group without polypeptide added was used as a control.

[2] = Cytotoxicity of polypeptides in Vero cells (CCK-8); assay type: cell-based; details: Vero cells, 24 h
Description: Therefore, this standard was testified by cytotoxicity assay, and the cells without any treatment were used as a control group.
(1) Vero cells were plated in a 96-well plate at 100 μL per well.
(2) When the cells grew to a confluence of 70%-80%, the DMEM medium containing 10% serum was replaced with a DMEM medium containing 2% serum, and a certain concentration gradient of polypeptide RQ or LQ or SQ was added, so that the final concentrations of the polypeptide in the wells were 0.073242 μM, 0.146484 μM, 0.292969 μM, 0.585938 μM, 1.171875 μM, 2.34375 μM, 4.6875 μM, 9.375 μM, 18.75 μM, 37.5 μM, 75 μM and 150 μM, respectively.
(§15) (3) The samples were collected 24 h after the addition of the polypeptide, and then 10 μL of live cell detection reagent CCK-8 was added to each well and mixed well.
(§16) (4) The plate was placed at 37° C. for 2 h.
(§17) (5) The absorbance value at OD450 was detected by a microplate reader.
The CC50 of each polypeptide was calculated taking the cell viability of untreated cells as 100%.

[3] = Toxicity assay in Huh7 cells (CCK-8); assay type: cell-based; details: human, Huh7 cells
Description: (§18) (1) Different cells were plated in a 96-well plate at 100 μL per well.
(§19) (2) When the cells grew to a confluence of 70%-80%, the DMEM medium containing 10% serum was replaced with a DMEM medium containing 2% serum, and a certain concentration gradient of polypeptide RQ was added, so that the final concentrations of the polypeptide in the wells were 0.073242 μM, 0.146484 μM, 0.292969 μM, 0.585938 μM, 1.171875 μM, 2.34375 μM, 4.6875 μM, 9.375 μM, 18.75 μM, 37.5 μM, 75 μM, 150 μM, and 300 μM, respectively.
as §15, §16, §17

Huh7 cells = test: Toxicity assay in Huh7 cells (CCK-8); assay type: cell-based; details: Table 14, 24 h
Description: as §18, §19, §15, §16, §17

EV71 [4] = test: Inhibition of EV71 in Vero cells (viral RNA, qRT-PCR); assay type: cell-based, enterovirus 71 (EV71); details: anti-EV71 in Vero cells
Description: as §1, §2, §3, §4, §5, §6, §7, §8, §9, §10, §11, §12, §13, §14
(1) Vero E6 cells were plated in a 24-well plate.
(3) After 1 h, different polypeptides (LQ or SQ) with final concentrations of 0.3125 μM, 0.625 μM, 1.25 μM, 2.5 μM, and 5 μM were added respectively. The group without polypeptide added was used as a control.

CVA16 = test: Inhibition of CVA16 in RD cells (viral RNA, qRT-PCR); assay type: cell-based; details: anti-CVA16 in RD cells
Description: (1) RD cells were plated in a 24-well plate.
(2) When the cells grew to a confluence of 70%-80%, the DMEM medium containing 10% serum was replaced with a DMEM medium containing 2% serum (the DMEM medium containing 2% serum was added in each well at an amount of 0.5 mL), and 5 μL of CVA16 virus of 1×10^6 PFU/mL was added to each well.
(3) After 1 h, different polypeptides with final concentrations of 0.3125 μM, 0.625 μM, 1.25 μM, 2.5 μM, and 5 μM were added respectively. The group without polypeptide added was used as a control.
(4) The samples were collected 24 h after the infection of CVA16 virus, and RNA was extracted with the total RNA extraction kit.
as §5, §6, §7, §8
(9) RNA washing buffer 1 was added in the column for 30 s of centrifugation at 12000 g. […]
as §14

In the case of `CC[C@H](C)[C@H](NC(=O)[C@H](C)NC(=O)[C@H](CO)NC(=O)[C@H](CCCNC(=N)N)NC(=O)[C@H](CC(N)=O)NC(=O)[C@H](CC(N)=O)NC(=O)[C@H](Cc1ccc(O)cc1)NC(=O)[C@H](CCC(=O)O)NC(=O)[C@H](CCCNC(=N)N)NC(=O)CNC(=O)[C@H](CO)NC(=O)CNC(=O)[C@H](CCCNC(=N)N)NC(=O)[C@H](CCCNC(=N)N)NC(=O)[C@H](CCCNC(=N)N)NC(=O)[C@H](CCC(N)=O)NC(=O)[C@H](CCCNC(=N)N)NC(=O)[C@H](CCCNC(=N)N)NC(=O)[C@H](CCCCN)NC(=O)[C@H](CCCCN)NC(=O)[C@H](CCCNC(=N)N)NC(=O)CNC(=O)[C@@H](N)Cc1ccc(O)cc1)C(=O)NCC(=O)N[C@@H](CC(N)=O)C(=O)N[C@H](C(=O)N[C@H](C(=O)N[C@@H](CCC(=O)O)C(=O)N[C@@H](C)C(=O)N[C@@H](CC(C)C)C(=O)N[C@@H](Cc1ccccc1)C(=O)N[C@@H](CCC(N)=O)C(=O)O)[C@@H](C)CC)[C@@H](C)O` [RQ], the pIC50 (EV71 [1]) was 5.87, the CC50 at 24 h ([2]; African green monkey, CCK-8) was > 150000 nM and the viability at 24 h, 0.073242 µM ([2]; polypeptide 0.073242 μM, read-out: Cell viability (%)) was 101%. It also gave a viability at 24 h, 0.146484 µM ([2]; polypeptide 0.146484 μM, read-out: Cell viability (%)) of 93.8%, a viability at 24 h, 0.292969 µM ([2]; polypeptide 0.292969 μM, read-out: Cell viability (%)) of 92.7% and a viability at 24 h, 0.585938 µM ([2]; polypeptide 0.585938 μM, read-out: Cell viability (%)) of 92.2%. For the same compound, the viability at 24 h, 1.17188 µM ([2]; polypeptide 1.171875 μM, read-out: Cell viability (%)) was 116%, the viability at 24 h, 2.34375 µM ([2]; polypeptide 2.34375 μM, read-out: Cell viability (%)) was 116% and the viability at 24 h, 4.6875 µM ([2]; polypeptide 4.6875 μM, read-out: Cell viability (%)) was 113%. The viability at 24 h, 9.375 µM ([2]; polypeptide 9.375 μM, read-out: Cell viability (%)) was 118%, the viability at 24 h, 18.75 µM ([2]; polypeptide 18.75 μM, read-out: Cell viability (%)) was 111% and the viability at 24 h, 37.5 µM ([2]; polypeptide 37.5 μM, read-out: Cell viability (%)) was 106%. It also gave a viability at 24 h, 75 µM ([2]; polypeptide 75 μM, read-out: Cell viability (%)) of 110%, a viability at 24 h, 150 µM ([2]; polypeptide 150 μM, read-out: Cell viability (%)) of 108% and a viability at 24 h, 0.073242 µM ([3]; Table 14, RQ 0.073242 μM, 24 h, read-out: Viability of Huh7 cell (%)) of 113%. For the same compound, the viability at 24 h, 0.146484 µM ([3]; Table 14, RQ 0.146484 μM, 24 h, read-out: Viability of Huh7 cell (%)) was 111%, the viability at 24 h, 0.292969 µM ([3]; Table 14, RQ 0.292969 μM, 24 h, read-out: Viability of Huh7 cell (%)) was 111% and the viability at 24 h, 0.585938 µM ([3]; Table 14, RQ 0.585938 μM, 24 h, read-out: Viability of Huh7 cell (%)) was 101%. For the same compound, the viability at 24 h, 1.17188 µM ([3]; Table 14, RQ 1.171875 μM, 24 h, read-out: Viability of Huh7 cell (%)) was 104%, the viability at 24 h, 2.34375 µM ([3]; Table 14, RQ 2.34375 μM, 24 h, read-out: Viability of Huh7 cell (%)) was 98.7% and the viability at 24 h, 4.6875 µM ([3]; Table 14, RQ 4.6875 μM, 24 h, read-out: Viability of Huh7 cell (%)) was 98%. The viability at 24 h, 9.375 µM ([3]; Table 14, RQ 9.375 μM, 24 h, read-out: Viability of Huh7 cell (%)) was 103%, the viability at 24 h, 18.75 µM ([3]; Table 14, RQ 18.75 μM, 24 h, read-out: Viability of Huh7 cell (%)) was 101% and the viability at 24 h, 37.5 µM ([3]; Table 14, RQ 37.5 μM, 24 h, read-out: Viability of Huh7 cell (%)) was 95%. The viability at 24 h, 75 µM ([3]; Table 14, RQ 75 μM, 24 h, read-out: Viability of Huh7 cell (%)) was 90.9%, the viability at 24 h, 150 µM ([3]; Table 14, RQ 150 μM, 24 h, read-out: Viability of Huh7 cell (%)) was 65.8% and the CC50 at 24 h ([3]; Table 1 (Huh and 293T cells)) was > 300000 nM. For the same compound, the “Viability of Huh7 cell (%)” value (Huh7 cells; RQ 0.073242 μM) was 113.9801% and 116.7518%, the “Viability of Huh7 cell (%)” value (Huh7 cells; RQ 0.146484 μM) was 106.6132% and 101.8721% and the “Viability of Huh7 cell (%)” value (Huh7 cells; RQ 0.292969 μM) was 104.4979% and 102.018%. For the same compound, the “Viability of Huh7 cell (%)” value (Huh7 cells; RQ 0.585938 μM) was 100.7051% and 101.5074%, the “Viability of Huh7 cell (%)” value (Huh7 cells; RQ 1.171875 μM) was 97.2% and 99.03% and the “Viability of Huh7 cell (%)” value (Huh7 cells; RQ 2.34375 μM) was 100.1945% and 96.04%. For the same compound, the “Viability of Huh7 cell (%)” value (Huh7 cells; RQ 4.6875 μM) was 103.5497% and 101.2886%, the “Viability of Huh7 cell (%)” value (Huh7 cells; RQ 9.375 μM) was 101.4345% and 97.71% and the “Viability of Huh7 cell (%)” value (Huh7 cells; RQ 18.75 μM) was 93.41% and 94.29%. For the same compound, the “Viability of Huh7 cell (%)” value (Huh7 cells; RQ 37.5 μM) was 97.06% and 92.03%, the “Viability of Huh7 cell (%)” value (Huh7 cells; RQ 75 μM) was 93.27% and 88.09% and the “Viability of Huh7 cell (%)” value (Huh7 cells; RQ 150 μM) was 67.74% and 51.47%. It also gave a pIC50 (EV71 [4]) of 6.18 and a pIC50 (CVA16) of 5.67.
